# US4452778A, “Synergistic antibacterial compositions and method of treatment of infections caused by multiple antibiotic-resistant organisms” (Eli Lilly and Company, priority 1981, dated 1984)
# Read-outs that look alike come from different tables or passages of the source.
# Experiments:
# Klebsiella pneumoniae = assay: Checkerboard broth dilution synergy study (mic); assay type: cell-based; conditions: Table III, isolate 1231
# Proteus rettgeri = assay: Checkerboard broth dilution synergy study (mic); assay type: cell-based; conditions: for MIC: Providencia rettgeri, read-out: mic, drug alone
# Proteus mirabilis = assay: Checkerboard broth dilution synergy study (mic); assay type: cell-based; conditions: Table II, strain Allen
# Proteus vulgaris = assay: Checkerboard broth dilution synergy study (mic); assay type: cell-based; conditions: Table II; for MIC: Proteus vulgaris, read-out: mic, drug alone
# E. coli = assay: Checkerboard broth dilution synergy study (mic); assay type: cell-based; conditions: Table II; for MIC: Escherichia coli, read-out: mic, drug alone
# Pseudomonas maltophilia = assay: Checkerboard broth dilution synergy study (mic); assay type: cell-based; conditions: for MIC: Stenotrophomonas maltophilia, read-out: mic, drug alone
# Acinetobacter sp. = assay: Checkerboard broth dilution synergy study (mic); assay type: cell-based; conditions: for MIC: Acinetobacter, read-out: mic, drug alone
# Pseudomonas pseudomallei = assay: microbe, parasite or virus in culture; assay type: cell-based
# clinical = conditions: in vivo, iv, mean serum concentration
smiles,measurement,setting,value
"COC1(NC(=O)C(C(=O)O)c2ccc(O)cc2)C(=O)N2C(C(=O)O)=C(CSc3nnnn3C)COC21 (stereo not shown) [1-oxa compound I, moxalactam]",mic of each drug in combination I + A,Klebsiella pneumoniae,0.06 µg/mL
same,MIC,"Proteus rettgeri; Table II, strain 65",0.25 µg/mL
same,MIC,"Proteus rettgeri; Table III, isolate 53",0.25 µg/mL
same,MIC,"Proteus rettgeri; Table III, isolate 136-1",0.25 µg/mL
same,MIC,"Proteus rettgeri; Table III, isolate 768",0.5 µg/mL
same,MIC,"Proteus rettgeri; Table III, isolate 997",0.4 µg/mL
same,MIC,"Proteus rettgeri; Table III, isolate 1422",2 µg/mL
same,mic of each drug in combination I + T,"Proteus rettgeri; Table II, strain 65",0.12 µg/mL
same,mic of each drug in combination I + A,"Proteus rettgeri; Table III, isolate 53",< 0.06 µg/mL
same,mic of each drug in combination I + A,"Proteus rettgeri; Table III, isolate 136-1",0.12 µg/mL
same,mic of each drug in combination I + A,"Proteus rettgeri; Table III, isolate 768",< 0.06 µg/mL
same,mic of each drug in combination I + A,"Proteus rettgeri; Table III, isolate 997",< 0.06 µg/mL
same,mic of each drug in combination I + A,"Proteus rettgeri; Table III, isolate 1422",2 µg/mL
same,MIC,"Proteus mirabilis; Proteus mirabilis, read-out: mic, drug alone",0.06 µg/mL
same,mic of each drug in combination I + T,Proteus mirabilis,< 0.12 µg/mL
same,MIC,Proteus vulgaris; strain 363,0.12 µg/mL
same,MIC,Proteus vulgaris; strain Shide,0.06 µg/mL
same,mic of each drug in combination I + T,Proteus vulgaris; strain 363,< 0.12 µg/mL
same,mic of each drug in combination I + T,Proteus vulgaris; strain Shide,< 0.12 µg/mL
same,MIC,E. coli; strain 46-2,0.03 µg/mL
same,MIC,E. coli; strain 77-3,0.03 µg/mL
same,MIC,E. coli; strain 136-3,0.06 µg/mL
same,MIC,E. coli; strain 1260,0.03 µg/mL
same,MIC,E. coli; strain 1262,0.03 µg/mL
same,MIC,E. coli; strain Briley,0.12 µg/mL
same,MIC,E. coli; strain Dill,0.25 µg/mL
same,mic of each drug in combination I + P,E. coli; strain 46-2,< 0.12 µg/mL
same,mic of each drug in combination I + T,E. coli; strain 46-2,< 0.12 µg/mL
same,mic of each drug in combination I + T,E. coli; strain 77-3,< 0.12 µg/mL
same,mic of each drug in combination I + T,E. coli; strain 136-3,< 0.12 µg/mL
same,mic of each drug in combination I + P,E. coli; strain 1253,0.5 µg/mL
same,mic of each drug in combination I + T,E. coli; strain 1253,< 0.12 µg/mL
same,mic of each drug in combination I + T,E. coli; strain 1260,< 0.12 µg/mL
same,mic of each drug in combination I + P,E. coli; strain 1262,< 0.12 µg/mL
same,mic of each drug in combination I + T,E. coli; strain 1262,< 0.12 µg/mL
same,mic of each drug in combination I + P,E. coli; strain 1415,< 0.12 µg/mL
same,mic of each drug in combination I + T,E. coli; strain 1415,< 0.12 µg/mL
same,mic of each drug in combination I + P,E. coli; strain Briley,< 0.12 µg/mL
same,mic of each drug in combination I + T,E. coli; strain Briley,< 0.12 µg/mL
same,mic of each drug in combination I + T,E. coli; strain Dill,< 0.12 µg/mL
same,MIC,"Pseudomonas maltophilia; Table II, strain 10",32 µg/mL
same,MIC,"Pseudomonas maltophilia; Table II, strain 11",4 µg/mL
same,MIC,"Pseudomonas maltophilia; Table II, strain 505",8 µg/mL
same,MIC,"Pseudomonas maltophilia; Table III, isolate 10",32 µg/mL
same,MIC,"Pseudomonas maltophilia; Table III, isolate 505",8 µg/mL
same,mic of each drug in combination I + T,"Pseudomonas maltophilia; Table II, strain 10",4 µg/mL
same,mic of each drug in combination I + T,"Pseudomonas maltophilia; Table II, strain 11",0.5 µg/mL
same,mic of each drug in combination I + T,"Pseudomonas maltophilia; Table II, strain 505",0.6 µg/mL
same,mic of each drug in combination I + A,"Pseudomonas maltophilia; Table III, isolate 10",8 µg/mL
same,mic of each drug in combination I + A,"Pseudomonas maltophilia; Table III, isolate 505",2 µg/mL
same,MIC,"Acinetobacter sp.; Table II, strain 28-1",16 µg/mL
same,MIC,"Acinetobacter sp.; Table II, strain 28-2",16 µg/mL
same,MIC,"Acinetobacter sp.; Table II, strain 106",8 µg/mL
same,MIC,"Acinetobacter sp.; Table II, strain 107",32 µg/mL
same,MIC,"Acinetobacter sp.; Table II, strain 109",16 µg/mL
same,MIC,"Acinetobacter sp.; Table III, isolate 28-1",16 µg/mL
same,MIC,"Acinetobacter sp.; Table III, isolate 28-2",16 µg/mL
same,MIC,"Acinetobacter sp.; Table III, isolate 106",8 µg/mL
same,MIC,"Acinetobacter sp.; Table III, isolate 107",32 µg/mL
same,MIC,"Acinetobacter sp.; Table III, isolate 109",16 µg/mL
same,mic of each drug in combination I + T,"Acinetobacter sp.; Table II, strain 28-1",0.6 µg/mL
same,mic of each drug in combination I + T,"Acinetobacter sp.; Table II, strain 28-2",2 µg/mL
same,mic of each drug in combination I + T,"Acinetobacter sp.; Table II, strain 106",0.6 µg/mL
same,mic of each drug in combination I + T,"Acinetobacter sp.; Table II, strain 107",2 µg/mL
same,mic of each drug in combination I + T,"Acinetobacter sp.; Table II, strain 109",2 µg/mL
same,mic of each drug in combination I + A,"Acinetobacter sp.; Table III, isolate 28-1",2 µg/mL
same,mic of each drug in combination I + A,"Acinetobacter sp.; Table III, isolate 28-2",< 0.06 µg/mL
same,mic of each drug in combination I + A,"Acinetobacter sp.; Table III, isolate 106",< 0.06 µg/mL
same,mic of each drug in combination I + A,"Acinetobacter sp.; Table III, isolate 107",8 µg/mL
same,mic of each drug in combination I + A,"Acinetobacter sp.; Table III, isolate 109",8 µg/mL
same,MIC,"Pseudomonas pseudomallei; Burkholderia pseudomallei, read-out: mic, drug alone",32 µg/mL
same,mic of each drug in combination I + A,"Pseudomonas pseudomallei; Table III, isolate not named",4 µg/mL
same,concentration at 11 h,clinical,1200 ng/mL
